The data set concerns C2C12 mouse myoblast cells. As to the kind of experiment: MTT assay of film leachate toxicity. It is filed as cell-based. The settings on record: 24 h exposure. The procedure: Toxicity studies were also performed using the MTT assay to evaluate whether films of 3.0a-c on stainless steel would release toxic levels of paclitaxel or any other leachate during a defined incubation period in cell culture media.
Preparation of leachate: Test samples were melt-pressed to a thickness of 0.4 mm. The melt pressed film was then cut into squares of 1 cm×1 cm. Samples were sterilized by washing with 70% ethanol and subsequently dried for 2 h under UV light. […]
MTT assay: C2C12 mouse myoblast cells were seeded in a Nunclon™ 96-well U bottom transparent polystrol plate to obtain 10,000 cells/well in 100 μL of DMEM containing serum, glutamax and antibiotics as described above. […] After shaking (1 second, 2 mm amp, 654 rpm), the absorbance of the wells at 540 nm was read using an M1000-Pro plate reader (Tecan). The absorbance of wells not containing cells but treated by all of the above steps was subtracted as a background and the cell viability was calculated relative to wells containing cells that were exposed to just culture medium. No (0%) cell viability was detected for the cells exposed to the highest concentrations of the positive control sodium lauryl sulfate, confirming the sensitivity of the assay.

On to `CCCCCCCCCCCCOS(=O)(=O)[O-].[Na+]` [SDS, sodium dodecyl sulfate], for which the cell viability (commonly the share of living cells, or the viability signal relative to a control) is given as under 10% (at 0.2 μg/mL) and 0% (highest concentrations of the positive control).
